Laboratory results taken from patent US20260022142A1, “MACROCYCLIC IMMUNOMODULATORS” (Bristol-Myers Squibb Company, priority 2022, published 2026).
Bridge positions count the residues as written; N and C are the ends. Square brackets hold non-standard residues; d marks the D form. Peptide text beside a SMILES is read from it. * marks the point of attachment. ξ: configuration not given here. Bip = N[C@@H](Cc1ccc(-c2ccccc2)cc1)C(=O)O; Phe(3-Me) = Cc1cccc(C[C@H](N)C(=O)O)c1; Cha = N[C@@H](CC1CCCCC1)C(=O)O; Cit = NC(=O)NCCC[C@H](N)C(=O)O; NMeN = CN[C@@H](CC(N)=O)C(=O)O; dNMeN = CN[C@H](CC(N)=O)C(=O)O; Thr(3ξ) = CC(O)[C@H](N)C(=O)O; Carboxymethyl = O=C(O)C*; Orn = NCCC[C@H](N)C(=O)O; Aun = NCCCCCCCCCCC(=O)O; Dab = NCC[C@H](N)C(=O)O; AEEA = NCCOCCOCC(=O)O; ξDab = NCCC(N)C(=O)O

Biological target: T1, PD-1/PD-L1 interaction (PE-labeled human PD-L1-Ig binding to Jurkat cell line over-expressing human PD-1) (Homo sapiens, UniProt Q15116)
T1 construct: expressed in transfected cells; host or cells: Jurkat
Assay: Jurkat-PD-1 Cell Binding High-Content Screening Assay (CBA)
Assay type: cell-based
Conditions: Jurkat cell line over-expressing human PD-1; PE-labeled PD-L1-Ig 20 nM final; read-out: Jurkat hPD1-PDL1 IC50
Outline: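 Read-out is high-content imaging of cell-bound phycoerythrin-tagged PD-L1-Ig on fixed, Hoechst-counterstained Jurkat cells that over-express human PD-1. Compound exposure lasts 2 h at 37° C before the labeled ligand (20 nM final) is added for a further hour.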

T1 sequence (Q15116 25-288): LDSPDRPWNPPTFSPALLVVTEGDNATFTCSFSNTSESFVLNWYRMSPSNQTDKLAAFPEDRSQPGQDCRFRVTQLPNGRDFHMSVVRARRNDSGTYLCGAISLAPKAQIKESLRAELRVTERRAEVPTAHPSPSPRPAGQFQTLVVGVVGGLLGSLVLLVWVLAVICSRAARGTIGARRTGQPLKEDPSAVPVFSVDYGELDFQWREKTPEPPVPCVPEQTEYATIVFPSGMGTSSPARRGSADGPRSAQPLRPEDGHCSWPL

SMILES	IC50 [nM]
CC(C)C[C@H]1NC(=O)[C@H](CCCN)NC(=O)[C@H](C(C)C)NC(=O)[C@H](Cc2ccc(-c3ccccc3)cc2)NC(=O)[C@H](C(C)C)NC(=O)[C@H](Cc2c[nH]c3ccccc23)NC(=O)[C@H](CC(=O)O)NC(=O)[C@H](Cc2ccc(OCC(=O)O)cc2)NC(=O)[C@H](CCCNC(=N)N)NC(=O)CSC[C@@H](C(=O)N(C)[C@@H](CC(N)=O)C(=O)NCCCCCCCCCCC(=O)O)NC(=O)[C@H](CO)NC(=O)[C@H](C(C)C)NC(=O)[C@H](CC2CCCCC2)NC(=O)[C@H](CCN)NC1=O [Compound 3438] ({CH2CO}-RY(Carboxymethyl)DWV[Bip]V[Orn][dL][Dab][Cha]VSC[NMeN][Aun]-OH; thioether N-14)	66.1
Cc1cccc(C[C@@H]2NC(=O)[C@H](CC(=O)O)NC(=O)[C@H](Cc3ccc(OCC(=O)O)cc3)NC(=O)[C@H](C(C)O)NC(=O)CSC[C@@H](C(=O)N[C@@H](CCN)C(=O)NCCCCCCCCCCC(=O)O)NC(=O)[C@H](C(C)O)NC(=O)[C@H](C(C)C)NC(=O)[C@H](CC3CCCCC3)NC(=O)[C@H](CCN)NC(=O)[C@@H](CC(C)C)NC(=O)[C@H](CCCN)NC(=O)[C@H](CCC(=O)O)NC(=O)[C@H](Cc3ccc(-c4ccccc4)cc3)NC(=O)[C@H](C(C)C)NC2=O)c1 (stereo partly drawn) [Compound 3441] ({CH2CO}-[Thr(3ξ)]Y(Carboxymethyl)D[Phe(3-Me)]V[Bip]E[Orn][dL][Dab][Cha]V[Thr(3ξ)]C[Dab][Aun]-OH; thioether N-14)	39.7
CC(=O)NCCCC[C@@H]1NC(=O)[C@H](C(C)C)NC(=O)[C@H](CC2CCCCC2)NC(=O)[C@H](CCN)NC(=O)[C@@H](CC(C)C)NC(=O)[C@H](CCCN)NC(=O)[C@H](C(C)C)NC(=O)[C@H](Cc2ccc(-c3ccccc3)cc2)NC(=O)[C@H](C(C)C)NC(=O)[C@H](Cc2cccc(C)c2)NC(=O)[C@H](CC(=O)O)NC(=O)[C@H](Cc2ccc(OCC(=O)O)cc2)NC(=O)[C@H](C(C)O)NC(=O)CSC[C@@H](C(=O)N(C)[C@H](CC(N)=O)C(=O)NCCCCCCCCCCC(=O)O)NC1=O (stereo partly drawn) [Compound 3445] ({CH2CO}-[Thr(3ξ)]Y(Carboxymethyl)D[Phe(3-Me)]V[Bip]V[Orn][dL][Dab][Cha]VK(Ac)C[dNMeN][Aun]-OH; thioether N-14)	160
CC(C)C[C@H]1NC(=O)[C@H](CCCN)NC(=O)[C@H](CCCNC(N)=O)NC(=O)[C@H](Cc2ccc(-c3ccccc3)cc2)NC(=O)[C@H](C(C)C)NC(=O)[C@H](Cc2c[nH]c3ccccc23)NC(=O)[C@H](CC(=O)O)NC(=O)[C@H](Cc2ccc(OCC(=O)O)cc2)NC(=O)[C@H](C(C)O)NC(=O)CSC[C@@H](C(=O)N[C@H](CCC(N)=O)C(=O)NCCCCCCCCCCC(=O)O)NC(=O)[C@H](C(C)O)NC(=O)[C@H](C(C)C)NC(=O)[C@H](CC2CCCCC2)NC(=O)[C@H](CCN)NC1=O (stereo partly drawn) [Compound 3446] ({CH2CO}-[Thr(3ξ)]Y(Carboxymethyl)DWV[Bip][Cit][Orn][dL][Dab][Cha]V[Thr(3ξ)]C[dQ][Aun]-OH; thioether N-14)	65.2
Cc1cccc(C[C@@H]2NC(=O)[C@H](CC(=O)O)NC(=O)[C@H](Cc3ccc(OCC(=O)O)cc3)NC(=O)[C@H](C(C)O)NC(=O)CSC[C@@H](C(=O)NC(CCN)C(=O)NCCCCCCCCCCC(=O)O)NC(=O)[C@H](C(C)O)NC(=O)[C@H](C(C)C)NC(=O)[C@H](CC3CCCCC3)NC(=O)[C@H](CCN)NC(=O)[C@@H](CC(C)C)NC(=O)[C@H](CCCN)NC(=O)[C@H](CCC(=O)O)NC(=O)[C@H](Cc3ccc(-c4ccccc4)cc3)NC(=O)[C@H](CCC(=O)O)NC2=O)c1 (stereo partly drawn) [Compound 3448] ({CH2CO}-[Thr(3ξ)]Y(Carboxymethyl)D[Phe(3-Me)]E[Bip]E[Orn][dL][Dab][Cha]V[Thr(3ξ)]C[ξDab][Aun]-OH; thioether N-14)	91
Cc1cccc(C[C@@H]2NC(=O)[C@H](CC(=O)O)NC(=O)[C@H](Cc3ccc(OCC(=O)O)cc3)NC(=O)[C@H](CCCNC(=N)N)NC(=O)CSC[C@@H](C(=O)N[C@@H](CCN)C(=O)NCCCCCCCCCCC(=O)O)NC(=O)[C@H](C(C)O)NC(=O)[C@H](C(C)C)NC(=O)[C@H](CC3CCCCC3)NC(=O)[C@H](CCN)NC(=O)[C@@H](CC(C)C)NC(=O)[C@H](CCCNC(N)=O)NC(=O)[C@H](Cc3ccc(OCC(=O)O)cc3)NC(=O)[C@H](Cc3ccc(-c4ccccc4)cc3)NC(=O)[C@H](C(C)C)NC2=O)c1 (stereo partly drawn) [Compound 3450] ({CH2CO}-RY(Carboxymethyl)D[Phe(3-Me)]V[Bip]Y(Carboxymethyl)[Cit][dL][Dab][Cha]V[Thr(3ξ)]C[Dab][Aun]-OH; thioether N-14)	18.3

Stronger by IC50, values ahead:

IC50 [nM]	SMILES
12.9	Cc1cccc(C[C@@H]2NC(=O)[C@H](CC(=O)O)NC(=O)[C@H](Cc3ccc(OCC(=O)O)cc3)NC(=O)[C@H](C(C)O)NC(=O)CSC[C@@H](C(=O)N[C@H](CCC(=O)O)C(=O)NCCCCCCCCCCC(=O)O)NC(=O)[C@H](C(C)O)NC(=O)[C@H](C(C)C)NC(=O)[C@H](CC3CCCCC3)NC(=O)[C@H](CCN)NC(=O)[C@@H](CC(C)C)NC(=O)[C@H](CCCN)NC(=O)[C@H](C(C)C)NC(=O)[C@H](Cc3ccc(-c4ccccc4)cc3)NC(=O)[C@H](Cc3ccc(O)cc3)NC2=O)c1 (stereo partly drawn) [Compound 3435] ({CH2CO}-[Thr(3ξ)]Y(Carboxymethyl)D[Phe(3-Me)]Y[Bip]V[Orn][dL][Dab][Cha]V[Thr(3ξ)]C[dE][Aun]-OH; thioether N-14)
17	Cc1cccc(C[C@@H]2NC(=O)[C@H](CC(=O)O)NC(=O)[C@H](Cc3ccc(OCC(=O)O)cc3)NC(=O)[C@H](C(C)O)NC(=O)CSC[C@@H](C(=O)N[C@H](CC(N)=O)C(=O)NCCCCCCCCCCC(=O)O)NC(=O)[C@H](C(C)O)NC(=O)[C@H](C(C)C)NC(=O)[C@H](CC3CCCCC3)NC(=O)[C@H](CCN)NC(=O)[C@@H](CC(C)C)NC(=O)[C@H](CCCN)NC(=O)[C@H](C(C)C)NC(=O)[C@H](Cc3ccc(-c4ccccc4)cc3)NC(=O)[C@H](C(C)C)NC2=O)c1 (stereo partly drawn) [Compound 3436] ({CH2CO}-[Thr(3ξ)]Y(Carboxymethyl)D[Phe(3-Me)]V[Bip]V[Orn][dL][Dab][Cha]V[Thr(3ξ)]C[dN][Aun]-OH; thioether N-14)
11.2	CC(=O)NCCCC[C@@H]1NC(=O)[C@H](Cc2ccc(-c3ccccc3)cc2)NC(=O)[C@H](C(C)C)NC(=O)[C@H](Cc2cccc(C)c2)NC(=O)[C@H](CC(=O)O)NC(=O)[C@H](Cc2ccc(OCC(=O)O)cc2)NC(=O)[C@H](C(C)O)NC(=O)CSC[C@@H](C(=O)N[C@H](CC(N)=O)C(=O)NCCCCCCCCCCC(=O)O)NC(=O)[C@H](CCC(N)=O)NC(=O)[C@H](C(C)C)NC(=O)[C@H](CC2CCCCC2)NC(=O)[C@H](CCN)NC(=O)[C@@H](CC(C)C)NC(=O)[C@H](CCCN)NC1=O (stereo partly drawn) [Compound 3437] ({CH2CO}-[Thr(3ξ)]Y(Carboxymethyl)D[Phe(3-Me)]V[Bip]K(Ac)[Orn][dL][Dab][Cha]VQC[dN][Aun]-OH; thioether N-14)
16.4	Cc1cccc(C[C@@H]2NC(=O)[C@H](CC(=O)O)NC(=O)[C@H](Cc3ccc(OCC(=O)O)cc3)NC(=O)[C@H](C(C)O)NC(=O)CSC[C@@H](C(=O)NCCOCCOCC(=O)NCCCCCCCCCCC(=O)O)NC(=O)[C@H](C(C)O)NC(=O)[C@H](C(C)C)NC(=O)[C@H](CC3CCCCC3)NC(=O)[C@H](CCN)NC(=O)[C@@H](CC(C)C)NC(=O)[C@H](CCN)NC(=O)[C@H](C(C)C)NC(=O)[C@H](Cc3ccc(-c4ccccc4)cc3)NC(=O)[C@H](C(C)C)NC2=O)c1 (stereo partly drawn) [Compound 3442] ({CH2CO}-[Thr(3ξ)]Y(Carboxymethyl)D[Phe(3-Me)]V[Bip]V[Dab][dL][Dab][Cha]V[Thr(3ξ)]C[AEEA][Aun]-OH; thioether N-14)
12	CC(=O)NCCCC[C@@H]1NC(=O)[C@H](C(C)C)NC(=O)[C@H](CC2CCCCC2)NC(=O)[C@H](CCN)NC(=O)[C@@H](CC(C)C)NC(=O)[C@H](CCN)NC(=O)[C@H](C(C)C)NC(=O)[C@H](Cc2ccc(-c3ccccc3)cc2)NC(=O)[C@H](C(C)C)NC(=O)[C@H](Cc2cccc(C)c2)NC(=O)[C@H](CC(=O)O)NC(=O)[C@H](Cc2ccc(OCC(=O)O)cc2)NC(=O)[C@H](C(C)O)NC(=O)CSC[C@@H](C(=O)NCCOCCOCC(=O)NCCCCCCCCCCC(=O)O)NC1=O (stereo partly drawn) [Compound 3443] ({CH2CO}-[Thr(3ξ)]Y(Carboxymethyl)D[Phe(3-Me)]V[Bip]V[Dab][dL][Dab][Cha]VK(Ac)C[AEEA][Aun]-OH; thioether N-14)
13.6	Cc1cccc(C[C@@H]2NC(=O)[C@H](CC(=O)O)NC(=O)[C@H](Cc3ccc(OCC(=O)O)cc3)NC(=O)[C@H](C(C)O)NC(=O)CSC[C@@H](C(=O)N[C@H](CC(N)=O)C(=O)NCCCCCCCCCCC(=O)O)NC(=O)[C@H](C(C)O)NC(=O)[C@H](C(C)C)NC(=O)[C@H](CC3CCCCC3)NC(=O)[C@H](CCN)NC(=O)[C@@H](CC(C)C)NC(=O)[C@H](CCCN)NC(=O)[C@H](CCCNC(N)=O)NC(=O)[C@H](Cc3ccc(-c4ccccc4)cc3)NC(=O)[C@H](C(C)C)NC2=O)c1 (stereo partly drawn) [Compound 3444] ({CH2CO}-[Thr(3ξ)]Y(Carboxymethyl)D[Phe(3-Me)]V[Bip][Cit][Orn][dL][Dab][Cha]V[Thr(3ξ)]C[dN][Aun]-OH; thioether N-14)
10.5	CC(=O)NCCCC[C@@H]1NC(=O)[C@H](C(C)C)NC(=O)[C@H](CC2CCCCC2)NC(=O)[C@H](CCN)NC(=O)[C@@H](CC(C)C)NC(=O)[C@H](CCCN)NC(=O)[C@H](C(C)C)NC(=O)[C@H](Cc2ccc(-c3ccccc3)cc2)NC(=O)[C@H](C(C)C)NC(=O)[C@H](Cc2cccc(C)c2)NC(=O)[C@H](CC(=O)O)NC(=O)[C@H](Cc2ccc(OCC(=O)O)cc2)NC(=O)[C@H](C(C)O)NC(=O)CSC[C@@H](C(=O)N[C@H](CCC(N)=O)C(=O)NCCCCCCCCCCC(=O)O)NC1=O (stereo partly drawn) [Compound 3447] ({CH2CO}-[Thr(3ξ)]Y(Carboxymethyl)D[Phe(3-Me)]V[Bip]V[Orn][dL][Dab][Cha]VK(Ac)C[dQ][Aun]-OH; thioether N-14)
